Assay results as given in the supplement of paper PMC11061612.

Experiments:
Test in all cases: combination Emax (second highest fraction inhibited in the dose matrix, 72 h); higher = more inhibition; extreme values may be limits of the assay
[1] = test system: AMO-1 (Plasma Cell Myeloma)
Method in brief: (§1)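 Cell lines grown in DMEM/F12 or RPMI with 10% FBS were plated in 1536-well plates and held 24 hours at 37°C, 5% CO2 before 72 hours of exposure to two-drug dose matrices, with DMSO typically at 0.2%. CellTiter-Glo 2.0 luminescence gave viability, which was converted to inhibition. Vehicle wells were set to 0 and blank wells to 1. Combination Emax is the second-highest inhibition in the matrix, and Bliss excess is the observed combination effect minus the expected EA + EB − EA·EB, where EA and EB are the single-agent effects.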

[2] = test system: C-4-I (Cervical Carcinoma)
Method in brief: as §1

[3] = test system: Ca9-22 (Head and Neck Carcinoma)
Method in brief: as §1

[4] = test system: Caov-4 (Ovarian Carcinoma)
Method in brief: as §1

D-263MG (Glioblastoma) = test system: D-263MG (Glioblastoma)
Method in brief: as §1

[5] = test system: EFM-19 (Breast Carcinoma)
Method in brief: as §1

[6] = test system: LU-65 (Non-Small Cell Lung Carcinoma)
Method in brief: as §1

[7] = test system: MIA-PaCa-2 (Pancreatic Carcinoma)
Method in brief: as §1

[8] = test system: MLMA (Other Blood Carcinomas)
Method in brief: as §1

[9] = test system: NEC8 (Other Solid Carcinomas)
Method in brief: as §1

[10] = test system: NUGC-3 (Gastric Carcinoma)
Method in brief: as §1

[11] = test system: OSC-20 (Oral Cavity Carcinoma)
Method in brief: as §1

[12] = test system: PANC-04-03 (Pancreatic Carcinoma)
Method in brief: as §1

PWR-1E (Non-Cancerous) = test system: PWR-1E (Non-Cancerous)
Method in brief: as §1

[13] = test system: SU8686 (Pancreatic Carcinoma)
Method in brief: as §1

[14] = test system: SW13 (Other Solid Carcinomas)
Method in brief: as §1

TGW (Neuroblastoma) = test system: TGW (Neuroblastoma)
Method in brief: as §1

TK10 (Kidney Carcinoma) = test system: TK10 (Kidney Carcinoma)
Method in brief: as §1

[15] = test system: VA-ES-BJ (Other Solid Carcinomas)
Method in brief: as §1

YH-13 (Glioblastoma) = test system: YH-13 (Glioblastoma)
Method in brief: as §1

| Structure (SMILES) | combination Emax [1] | combination Emax [2] | combination Emax [3] | combination Emax [4] | combination Emax (D-263MG (Glioblastoma)) | combination Emax [5] | combination Emax [6] | combination Emax [7] | combination Emax [8] | combination Emax [9] | combination Emax [10] | combination Emax [11] | combination Emax [12] | combination Emax (PWR-1E (Non-Cancerous)) | combination Emax [13] | combination Emax [14] | combination Emax (TGW (Neuroblastoma)) | combination Emax (TK10 (Kidney Carcinoma)) | combination Emax [15] | combination Emax (YH-13 (Glioblastoma)) |
| --- | --- | --- | --- | --- | --- | --- | --- | --- | --- | --- | --- | --- | --- | --- | --- | --- | --- | --- | --- | --- |
| Cn1cnc2c(F)c(Nc3ccc(Br)cc3Cl)c(C(=O)NOCCO)cc21 [Selumetinib] + C=CCn1c(=O)c2cnc(Nc3ccc(N4CCN(C)CC4)cc3)nc2n1-c1cccc(C(C)(C)O)n1 [AZD1775] (first compound max 10 µM, partner max 1 µM) | 0.917 | 0.929 | 0.55 | 0.764 | 0.218 | 0.321 | 0.908 | 0.767 | 0.769 | 0.628 | 0.639 | 0.27 | 0.456 | 0.34 | 0.126 | 0.361 | 0.566 | 0.478 | 0.468 | 0.329 |
| Cn1cnc2c(F)c(Nc3ccc(Br)cc3Cl)c(C(=O)NOCCO)cc21 [Selumetinib] + CC(C)n1c(=O)n(C)c2cnc3cc(F)c(-c4ccc(OCCCN5CCCCC5)nc4)cc3c21 [AZD1390] (first compound max 10 µM, 7x7, partner max 0.3 µM) | 0.364 | 0.26 | 0.44 | 0.492 | 0.204 | 0.235 | 0.598 | 0.535 | 0.23 | 0.0259 | 0.328 | 0.12 | 0.418 | 0.131 | 0.163 | 0.401 | 0.0418 | 0.325 | 0.129 | 0.131 |
| Cn1cnc2c(F)c(Nc3ccc(Br)cc3Cl)c(C(=O)NOCCO)cc21 [Selumetinib] + CCN(CCO)CCCOc1ccc2c(Nc3cc(CC(=O)Nc4cccc(F)c4)[nH]n3)ncnc2c1 [AZD2811] (first compound max 10 µM, 7x7, partner max 1 µM) | 0.481 | 0.66 | 0.475 | 0.551 | 0.284 | 0.219 | 0.635 | 0.657 | 0.286 | 0.0754 | 0.551 | 0.343 | 0.479 | 0.579 | 0.142 | 0.615 | 0.0777 | 0.327 | 0.327 | 0.429 |
| Cn1cnc2c(F)c(Nc3ccc(Br)cc3Cl)c(C(=O)NOCCO)cc21 [Selumetinib] + C[C@@H]1COCCN1C2=NC(=NC(=C2)C3(CC3)[S@](=N)(=O)C)C4=C5C=CNC5=NC=C4 [AZD6738] (first compound max 10 µM, 7x7, partner max 10 µM) | 0.885 | 0.908 | 0.869 | 0.76 | 0.359 | 0.138 | 0.808 | 0.686 | 0.596 | 0.764 | 0.666 | 0.295 | 0.516 | 0.935 | 0.113 | 0.628 | 0.577 | 0.573 | 0.714 | 0.51 |
| CC(=O)Nc1cccc(-n2c(=O)n(C3CC3)c(=O)c3c(Nc4ccc(I)cc4F)n(C)c(=O)c(C)c32)c1 [Trametinib] + Cc1nc(-c2cn3c(n2)-c2ccc(-c4cnn(C(C)(C)C(N)=O)c4)cc2OCC3)n(C(C)C)n1 [Taselisib] (first compound max 1 µM, 7x7, partner max 10 µM) | 0.812 | 0.94 | 0.936 | 0.76 | 0.943 | 0.665 | 0.985 | 0.887 | 0.661 | 0.674 | 0.865 | 0.669 | 0.89 | 0.864 | 0.481 | 0.929 | 0.694 | 0.769 | 0.687 | 0.916 |
| CC1(C)CCC(CN2CCN(c3ccc(C(=O)NS(=O)(=O)c4ccc(NCC5CCOCC5)c([N+](=O)[O-])c4)c(Oc4cnc5[nH]ccc5c4)c3)CC2)=C(c2ccc(Cl)cc2)C1 [Venetoclax] + C1CN(CCC1(C(=O)N[C@@H](CCO)C2=CC=C(C=C2)Cl)N)C3=NC=NC4=C3C=CN4 [Capivasertib] (first compound max 1 µM, 7x7, partner max 3 µM) | 0.76 | 0.235 | 0.212 | 0.282 | 0.202 | 0.489 | 0.462 | 0.213 | 0.866 | 0.174 | 0.227 | 0.265 | 0.199 | 0.203 | 0.059 | 0.254 | 0.465 | 0.339 | 0.264 | 0.259 |
| CC1(C)CCC(CN2CCN(c3ccc(C(=O)NS(=O)(=O)c4ccc(NCC5CCOCC5)c([N+](=O)[O-])c4)c(Oc4cnc5[nH]ccc5c4)c3)CC2)=C(c2ccc(Cl)cc2)C1 [Venetoclax] + C=CCn1c(=O)c2cnc(Nc3ccc(N4CCN(C)CC4)cc3)nc2n1-c1cccc(C(C)(C)O)n1 [AZD1775] (first compound max 1 µM, partner max 1 µM) | 0.921 | 0.872 | 0.903 | 0.811 | 0.808 | 0.489 | 0.733 | 0.795 | 0.945 | 0.42 | 0.596 | 0.253 | 0.466 | 0.548 | 0.107 | 0.289 | 0.846 | 0.591 | 0.503 | 0.381 |
| CC1(C)CCC(CN2CCN(c3ccc(C(=O)NS(=O)(=O)c4ccc(NCC5CCOCC5)c([N+](=O)[O-])c4)c(Oc4cnc5[nH]ccc5c4)c3)CC2)=C(c2ccc(Cl)cc2)C1 [Venetoclax] + CCN(CCO)CCCOc1ccc2c(Nc3cc(CC(=O)Nc4cccc(F)c4)[nH]n3)ncnc2c1 [AZD2811] (first compound max 1 µM, 7x7, partner max 1 µM) | 0.816 | 0.269 | 0.236 | 0.263 | 0.323 | 0.541 | 0.249 | 0.37 | 0.841 | 0.205 | 0.298 | 0.336 | 0.196 | 0.455 | 0.158 | 0.402 | 0.568 | 0.16 | 0.359 | 0.576 |
| CC1(C)CCC(CN2CCN(c3ccc(C(=O)NS(=O)(=O)c4ccc(NCC5CCOCC5)c([N+](=O)[O-])c4)c(Oc4cnc5[nH]ccc5c4)c3)CC2)=C(c2ccc(Cl)cc2)C1 [Venetoclax] + CN(C)CCCOc1ccc(-c2ccc3ncc4c(c3c2)n(C2CCOCC2)c(=O)n4C)cn1 [AZD0156] (first compound max 1 µM, 7x7, partner max 1 µM) | 0.814 | 0.269 | 0.48 | 0.226 | 0.171 | 0.546 | 0.362 | 0.375 | 0.93 | 0.174 | 0.276 | 0.16 | 0.18 | 0.217 | 0.152 | 0.465 | 0.32 | 0.304 | 0.227 | 0.198 |
| CC1(C)CCC(CN2CCN(c3ccc(C(=O)NS(=O)(=O)c4ccc(NCC5CCOCC5)c([N+](=O)[O-])c4)c(Oc4cnc5[nH]ccc5c4)c3)CC2)=C(c2ccc(Cl)cc2)C1 [Venetoclax] + COc1cc(Nc2ncc3c(n2)-c2ccc(Cl)cc2C(c2c(F)cccc2OC)=NC3)ccc1C(=O)O [Alisertib] (first compound max 1 µM, 7x7, partner max 10 µM) | 0.868 | 0.804 | 0.706 | 0.447 | 0.518 | 0.557 | 0.314 | 0.583 | 0.866 | 0.183 | 0.436 | 0.345 | 0.263 | 0.859 | 0.117 | 0.599 | 0.972 | 0.35 | 0.505 | 0.549 |
| CC1(C)CCC(CN2CCN(c3ccc(C(=O)NS(=O)(=O)c4ccc(NCC5CCOCC5)c([N+](=O)[O-])c4)c(Oc4cnc5[nH]ccc5c4)c3)CC2)=C(c2ccc(Cl)cc2)C1 [Venetoclax] + C[C@@H]1COCCN1C2=NC(=NC(=C2)C3(CC3)[S@](=N)(=O)C)C4=C5C=CNC5=NC=C4 [AZD6738] (first compound max 1 µM, 7x7, partner max 10 µM) | 0.904 | 0.906 | 0.865 | 0.751 | 0.515 | 0.495 | 0.652 | 0.666 | 0.909 | 0.749 | 0.711 | 0.425 | 0.443 | 0.932 | 0.0868 | 0.472 | 0.715 | 0.609 | 0.813 | 0.5 |
| CC1(C)CCC(CN2CCN(c3ccc(C(=O)NS(=O)(=O)c4ccc(NCC5CCOCC5)c([N+](=O)[O-])c4)c(Oc4cnc5[nH]ccc5c4)c3)CC2)=C(c2ccc(Cl)cc2)C1 [Venetoclax] + C[C@@H](Nc1cc(F)cc(F)c1)c1cc(C(=O)N(C)C)cc2c(=O)cc(N3CCOCC3)oc12 [AZD8186] (first compound max 1 µM, 7x7, partner max 3 µM) | 0.842 | 0.398 | 0.471 | 0.171 | 0.142 | 0.412 | 0.199 | 0.153 | 0.89 | 0.0292 | 0.183 | 0.128 | 0.149 | 0.173 | 0.127 | 0.128 | 0.377 | 0.465 | 0.149 | 0.441 |
